Measurements reported in patent publication US11453690B2, “Receptor inhibitor, pharmaceutical composition comprising same, and use thereof” (BEIJING TIDE PHARMACEUTICAL CO., LTD., priority 2018, dated 2022).

Target: AT2 Receptor (AT2R) (Homo sapiens (Human), UniProt P50052)
Experiment: Measurement of inhibitory activity on AT2 receptor (Tag-lite HTRF, Tb-labeled AT2R cells, angiotensin receptor red agonist)
Type: binding
Details: 1 h room temperature

Chain of AT2 Receptor (AT2R) (P50052 whole entry): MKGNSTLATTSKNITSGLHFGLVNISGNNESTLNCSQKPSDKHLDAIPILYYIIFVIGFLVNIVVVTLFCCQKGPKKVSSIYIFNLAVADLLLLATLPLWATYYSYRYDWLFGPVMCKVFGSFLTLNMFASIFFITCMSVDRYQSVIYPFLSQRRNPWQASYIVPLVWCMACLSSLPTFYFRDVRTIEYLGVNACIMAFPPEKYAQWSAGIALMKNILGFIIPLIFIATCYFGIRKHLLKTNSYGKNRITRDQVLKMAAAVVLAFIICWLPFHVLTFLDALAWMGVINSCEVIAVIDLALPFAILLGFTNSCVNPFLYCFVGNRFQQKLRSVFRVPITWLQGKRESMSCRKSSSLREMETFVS

Compound	IC50
CC(c1ccsc1)N(C)C(=O)N1[C@H]2CC[C@@H]1[C@@H](C(=O)O)N(C(=O)N(c1ccccc1)c1ccccc1)C2 (stereo partly drawn) [Compound C229, (1R,2S,5S)-3-(diphenylcarbamoyl)-8-(methyl (1-(thiophene-3-yl)ethyl)carbamoyl)-3,8-diazabicyclo[3.2.1] octane-2-carboxylic acid]	10.1 nM
CC(Cc1ccccc1)C(=O)N1[C@H]2CC[C@@H]1[C@@H](C(=O)O)N(C(=O)C(c1ccccc1)c1ccccc1)C2 (stereo partly drawn) [Compound C230, (1R,2S,5S)-3-(2,2-diphenylacetyl)-8-(2-methyl-3-phenylpropionyl)-3,8-diazabicyclo [3.2.1]octane-2-carboxylic acid]	50.2 nM
C/C(=C\c1ccccc1)C(=O)N1[C@H]2CC[C@@H]1[C@@H](C(=O)O)N(C(=O)C(c1ccccc1)c1ccccc1)C2 [Compound C231, (1R,2S,5S)-3-(2,2-diphenylacetyl)-8-((E)-2-methyl-3-phenylacryloyl)-3,8-diazabicyclo [3.2.1]octane-2-carboxylic acid]	103 nM
CN(C)S(=O)(=O)NC(=O)[C@@H]1[C@H]2CC[C@@H](CN1C(=O)C(c1ccccc1)c1ccccc1)N2C(=O)OCc1ccccc1 [Compound C233]	102 nM
C=CCc1ccc(CN(C)C(=O)N2[C@H]3CC[C@@H]2[C@@H](C(=O)O)N(C(=O)N(c2ccccc2)c2ccccc2)C3)cc1 [Compound C235, (1R,2S,5S)-8-((4-allylbenzyl)(methyl)carbamoyl)-3-(diphenylcarbamoyl)-3,8-diazabicyclo[3.2.1]octane-2-carboxylic acid]	6.78 nM
CCCc1ccc(CN(C)C(=O)N2[C@H]3CC[C@@H]2[C@@H](C(=O)O)N(C(=O)N(c2ccccc2)c2ccccc2)C3)cc1 [Compound C236, (1R,2S,5S)-3-(diphenylcarbamoyl)-8-(methyl(4-propylbenzyl)carbamoyl)-3,8-diazabicyclo[3.2.1]octane-2-carboxylic acid]	6.13 nM
O=C(O)[C@@H]1[C@H]2CC[C@@H](CN1C(=O)N(c1ccccc1)c1ccccc1)N2C(=O)c1ccccc1-c1ccccc1 [Compound C240, (1R,2S,5S)-8-([1,1′-biphenyl]-2-carbonyl)-3-(diphenylcarbamoyl)-3,8-diazabicyclo [3.2.1]octane-2-carboxylic acid]	113 nM
Cn1cc(-c2ccccc2C(=O)N2[C@H]3CC[C@@H]2[C@@H](C(=O)O)N(C(=O)N(c2ccccc2)c2ccccc2)C3)cn1 [Compound C241, (1R,2S,5S)-3-(diphenylcarbamoyl)-8-(2-(1-methyl-1H-pyrazole-4-yl)benzoyl)-3,8-diazabicyclo [3.2.1]octane-2-carboxylic acid]	156 nM
CCN(Cc1csc2ccccc12)C(=O)N1[C@H]2CC[C@@H]1[C@@H](C(=O)O)N(C(=O)N(c1ccccc1)c1ccccc1)C2 [Compound C245, (1R,2S,5S)-8-((benzo[b]thiophene-3-ylmethyl) (ethyl)carbamoyl)-3-(diphenylcarbamoyl)-3,8-diazabicyclo [3.2.1]octane-2-carboxylic acid]	10.5 nM
CN(Cc1csc2ccccc12)C(=O)N1[C@H]2CC[C@@H]1[C@@H](C(=O)O)N(C(=O)N(c1ccccc1)c1ccccc1)C2 [Compound C246]	10.1 nM
CN(Cc1ccc2cc[nH]c2c1)C(=O)N1[C@H]2CC[C@@H]1[C@@H](C(=O)O)N(C(=O)N(c1ccccc1)c1ccccc1)C2 [Compound C249, (1R,2S,5S)-8-(((1H-indole-6-yl)methyl)(methyl)carbamoyl)-3-(diphenylcarbamoyl)-3,8-diazabicyclo [3.2.1]octane-2-carboxylic acid]	10.9 nM
CN(Cc1ccc(Cl)nc1)C(=O)N1[C@H]2CC[C@@H]1[C@@H](C(=O)O)N(C(=O)N(c1ccccc1)c1ccccc1)C2 [Compound C255]	13.8 nM
O=C(O)[C@@H]1[C@H]2CC[C@@H](CN1C(=O)N(c1ccccc1)c1ccccc1)N2C(=O)C#Cc1ccccc1 [Compound C256, (1R,2S,5S)-3-(diphenylcarbamoyl)-8-(3-phenylpropioloyl)-3,8-diazabicyclo [3.2.1]octane-2-carboxylic acid]	40 nM
O=C(O)[C@@H]1[C@H]2CC[C@@H](CN1C(=O)N(c1ccccc1)c1ccccc1)N2C(=O)Cc1c[nH]c2ccccc12 [Compound C259, (1R,2S,5S)-8-(2-(1H-indole-3-yl)acetyl)-3-(diphenylcarbamoyl)-3,8-diazabicyclo [3.2.1]octane-2-carboxylic acid]	245 nM
CCN(Cc1ccoc1)C(=O)N1[C@H]2CC[C@@H]1[C@@H](C(=O)O)N(C(=O)N(c1ccccc1)c1ccccc1)C2 [Compound C260, (1R,2S,5S)-3-(diphenylcarbamoyl)-8-(ethyl (furan-3-ylmethyl)carbamoyl)-3,8-diazabicyclo [3.2.1]octane-2-carboxylic acid]	29.6 nM
CN(Cc1ccc2ccccc2n1)C(=O)N1[C@H]2CC[C@@H]1[C@@H](C(=O)O)N(C(=O)N(c1ccccc1)c1ccccc1)C2 [Compound C265, (1R,2S,5S)-3-(diphenylcarbamoyl)-8-(methyl (quinoline-2-ylmethyl)carbamoyl)-3,8-diazabicyclo [3.2.1]octane-2-carboxylic acid]	27.2 nM
CN(Cc1ccc2ncccc2c1)C(=O)N1[C@H]2CC[C@@H]1[C@@H](C(=O)O)N(C(=O)N(c1ccccc1)c1ccccc1)C2 [Compound C266, (1R,2S,5S)-3-(diphenylcarbamoyl)-8-(methyl (quinoline-6-ylmethyl)carbamoyl)-3,8-diazabicyclo [3.2.1]octane-2-carboxylic acid]	1.63 nM
CN(C)[C@@H](Cc1ccccc1)C(=O)N1[C@H]2CC[C@@H]1[C@@H](C(=O)O)N(C(=O)N(c1ccccc1)c1ccccc1)C2 [Compound C269, (1R,2S,5S)-8-((S)-2-(dimethylamino)-3-phenylpropionyl)-3-(diphenylcarbamoyl)-3,8-diazabicyclo [3.2.1]octane-2-carboxylic acid]	68.2 nM
CN(Cc1cc2ccccc2s1)C(=O)N1[C@H]2CC[C@@H]1[C@@H](C(=O)O)N(C(=O)N(c1ccccc1)c1ccccc1)C2 [Compound C271]	14.5 nM
CCN(Cc1sccc1C)C(=O)N1[C@H]2CC[C@@H]1[C@@H](C(=O)O)N(C(=O)N(c1ccccc1)c1ccccc1)C2 [Compound C272, (1R,2S,5S)-3-(diphenylcarbamoyl)-8-(ethyl((3-methylthiophen-2-yl)methyl)carbamoyl)-3,8-diazabicyclo [3.2.1]octane-2-carboxylic acid]	16.6 nM
CCN(Cc1cc(C)cs1)C(=O)N1[C@H]2CC[C@@H]1[C@@H](C(=O)O)N(C(=O)N(c1ccccc1)c1ccccc1)C2 [Compound C273, (1R,2S,5S)-3-(diphenylcarbamoyl)-8-(ethyl((4-methylthiophen-2-yl)methyl)carbamoyl)-3,8-diazabicyclo [3.2.1]octane-2-carboxylic acid]	20.9 nM
CCN(Cc1csc(Cl)c1)C(=O)N1[C@H]2CC[C@@H]1[C@@H](C(=O)O)N(C(=O)N(c1ccccc1)c1ccccc1)C2 [Compound C274, (1R,2S,5S)-8-(((5-chlorothiophene-3-yl)methyl) (ethyl)carbamoyl)-3-(diphenylcarbamoyl)-3,8-diazabicyclo [3.2.1]octane-2-carboxylic acid]	19.8 nM
Cc1cc(CN(C)C(=O)N2[C@H]3CC[C@@H]2[C@@H](C(=O)O)N(C(=O)C(c2ccccc2)c2ccccc2)C3)cs1 [Compound C277, (1R,2S,5S)-3-(2,2-diphenylacetyl)-8-(methyl((5-methylthiophen-3-yl)methyl)carbamoyl)-3,8-diazabicyclo [3.2.1]octane-2-carboxylic acid]	10.5 nM
CCN(Cc1ccc(C)s1)C(=O)N1[C@H]2CC[C@@H]1[C@@H](C(=O)O)N(C(=O)C(c1ccccc1)c1ccccc1)C2 [Compound C278, (1R,2S,5S)-3-(2,2-diphenylacetyl)-8-(ethyl((5-methylthiophen-2-yl)methyl)carbamoyl)-3,8-diazabicyclo [3.2.1]octane-2-carboxylic acid]	10.6 nM
CN(Cc1csc2ccccc12)C(=O)N1[C@H]2CC[C@@H]1[C@@H](C(=O)O)N(C(=O)C(c1ccccc1)c1ccccc1)C2 [Compound C279]	24.2 nM
CCN(Cc1ccc(Cl)s1)C(=O)N1[C@H]2CC[C@@H]1[C@@H](C(=O)O)N(C(=O)N(c1ccccc1)c1ccccc1)C2 [Compound C281, (1R,2S,5S)-8-(((5-chlorothiophene-2-yl)methyl) (ethyl)carbamoyl)-3-(diphenylcarbamoyl)-3,8-diazabicyclo[3.2.1] octane-2-carboxylic acid]	20.3 nM
O=C(O)[C@@H]1[C@@H]2CC[C@@H](CC2Oc2ccc([N+](=O)[O-])cc2)N1C(=O)C(c1ccccc1)c1ccccc1 (stereo partly drawn) [Compound C290, (1S,3S,4S)-2-(2,2-diphenyl-acetyl)-5-(4-nitrophenoxy)-2-azabicyclo [2.2.2]octane-3-carboxylic acid]	561 nM
O=C(O)[C@@H]1[C@@H]2CC[C@@H](CC2OCc2cccc(Cl)c2)N1C(=O)C(c1ccccc1)c1ccccc1 (stereo partly drawn) [Compound C291, (1S,3S,4S)-5-((3-chloro-benzyl)oxy)-2-(2,2-diphenylacetyl)-2-azabicyclo [2.2.2]octane-3-carboxylic acid]	765 nM
O=C(O)[C@@H]1[C@@H]2CC[C@@H](CC2OCc2ccccc2Cl)N1C(=O)C(c1ccccc1)c1ccccc1 (stereo partly drawn) [Compound C294, (1S,3S,4S)-5-((2-chloro-benzyl)oxy)-2-(2,2-diphenylacetyl)-2-azabicyclo [2.2.2]octane-3-carboxylic acid]	666 nM
(1R,2S,5S)-3- (2,2-diphenylacetyl)- 8-(((2-fluorobenzyl) oxy)carbonyl)- 3,8-diazabicyclo [3.2.1]octane-2- carboxylic acid [Compound C35]	36.6 nM
